# Patent publication US20250179077A1, “QUINAZOLINE COMPOUNDS AND USES THEREOF AS INHIBITORS OF MUTANT KRAS PROTEINS” (AMGEN INC., priority 2022, published 2025)
# How the values were obtained:
# [1] = molecular target: His-tagged KRAS G12D protein (Homo sapiens, UniProt P01116, G12D); experiment: KRAS G12D TR-FRET Assay; format: binding
# Protocol: KRAS G12D TR-FRET Assay Compounds of interest were prepared in a dose-response titration in DMSO, and 80 nL were added via Labcyte Echo to each well of a 384-well plate (Perkin Elmer 6008280). The His-tagged KRAS G12D protein (Amgen) was diluted to 20 nM in Assay Buffer (20 mM HEPES, pH 7.4, 10 mM MgCl2, 50 mM NaCl, 0.1% BSA, 0.01% Tween-20, 10 μM GDP) and 2 uL was added to the appropriate wells of the 384-well plate. The plate was incubated for 30 minutes at room temperature. Biotinylated KRPep-2d substrate (Amgen) was diluted to 20 nM in Assay Buffer and 2 μL was added to all wells and incubated for 1 hour at room temperature. Detection Reagent (0.4 nM LANCE Eu-W1024 Anti-6×-His (Perkin Elmer AD0401), 5 nM streptavidin-d2 (Cisbio 610SADLA)) was prepared in Assay Buffer, then 4 μL was added to the plate and incubated for 1 hour at room temperature. Plates were read using PerkinElmer EnVision (ex: 320 nm, em1: 665 nm, em2: 615 nm) and em1/em2 data was used to generate curve fits using a 4-parameter logistic model to calculate IC50 values.
# [2] = molecular target: GDP-bound KRAS protein (aa 1-169), containing both G12D and C118A amino acid substitutions (Homo sapiens, UniProt P01116, C118A/G12D); experiment: KRAS G12D Coupled Nucleotide Exchange Assay; format: biochemical
# Protocol: KRAS G12D Coupled Nucleotide Exchange Assay
# Following compound pre-incubation, purified SOS protein (aa 564-1049) and GTP (Roche 10106399001) were added to the assay wells and incubated for an additional 30 min. […] The assay plates were then read on a PerkinElmer EnVision Multilabel Reader, using AlphaScreen® technology, and data were analyzed using a 4-parameter logistic model to calculate IC50 values.
# [3] = test system: Phosphorylation of ERK1/2 in AsPC-1 cells; experiment: Phospho-ERK1/2 MSD Assay; format: cell-based; settings: Homo sapiens, ASPC1, 2 h, read-out: 2 h p-ERK (AsPC-1 cells), IC50, AsPC-1 cells, 2 h compound treatment
# Protocol: AsPC-1 (ATCC® CRL-1682™) cells were cultured in RPMI 1640 Medium (ThermoFisher Scientific 11875093) containing 10% fetal bovine serum (ThermoFisher Scientific 16000044) and Ix penicillin-streptomycin-glutamine (ThermoFisher Scientific 10378016). Sixteen hours prior to compound treatment, AsPC-1 cells were seeded in 96-well cell culture plates at a density of 25,000 cells/well and incubated at 37° C., 5% CO2. A compound dose-response titration was diluted in growth media, added to appropriate wells of a cell culture plate, and then incubated at 37° C., 5% CO2 for 2 h. Following compound treatment, cells were washed with ice-cold Dulbecco's phosphate-buffered saline, no Ca^2+ or Mg^2+ (ThermoFisher Scientific 14190144), and then lysed in RIPA buffer (50 mM Tris-HCl pH 7.5, 1% Igepal, 0.5% sodium deoxycholate, 150 mM NaCl, and 0.5% sodium dodecyl sulfate) containing protease inhibitors (Roche 4693132001) and phosphatase inhibitors (Roche 4906837001). Phosphorylation of ERK1/2 in compound-treated lysates was assayed using Phospho-ERK1/2 Whole Cell Lysate kits (Meso Scale Discovery K151DWD) according to the manufacturer's protocol. Assay plates were read on a Meso Scale Discovery Sector Imager 6000, and data were analyzed using a 4-parameter logistic model to calculate IC50 values.
# Chain of GDP-bound KRAS protein (aa 1-169), containing both G12D and C118A amino acid substitutions (P01116 1-169 isoform P01116-2 G12D/C118A): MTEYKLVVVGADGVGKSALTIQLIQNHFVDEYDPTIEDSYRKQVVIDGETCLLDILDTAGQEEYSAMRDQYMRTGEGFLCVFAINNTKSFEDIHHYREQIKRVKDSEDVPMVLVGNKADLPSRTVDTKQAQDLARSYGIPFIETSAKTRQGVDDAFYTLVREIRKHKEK
# Chain of His-tagged KRAS G12D protein (P01116 1-188 isoform P01116-2 G12D): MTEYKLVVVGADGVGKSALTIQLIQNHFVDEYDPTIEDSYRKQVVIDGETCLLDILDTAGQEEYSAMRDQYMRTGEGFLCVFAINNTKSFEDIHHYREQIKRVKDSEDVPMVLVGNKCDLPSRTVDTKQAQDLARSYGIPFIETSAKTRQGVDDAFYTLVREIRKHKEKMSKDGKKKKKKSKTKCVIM
Compound,IC50 [1],IC50 [2],IC50 [3]
"CCc1c(F)ccc2cc(O)cc(-c3ccc4c(N5CCC[C@]6(CCO6)C5)nc(OC[C@@]56CCCN5C[C@H](F)C6)nc4c3F)c12 (single isomer, unassigned) [Example 76]",5 nM,3 nM,9 nM
"CCc1c(F)ccc2cc(O)cc(-c3c(F)cc4c(N5CCC[C@]6(CNC(=O)O6)C5)nc(OC[C@@H]5C[C@@H](F)CN5C)nc4c3F)c12 (single isomer, unassigned) [Example 80]",4 nM,2 nM,7 nM
"C[C@@]1(O)COCCN(c2nc(OC[C@@]34CCCN3C[C@H](F)C4)nc3c(F)c(-c4cc(O)cc5ccc(F)c(Cl)c45)c(F)cc23)C1 (single isomer, unassigned) [Example 81]",5 nM,4 nM,8 nM
"C[C@@]1(O)COCCN(c2nc(OC[C@@]34CCCN3C[C@H](F)C4)nc3c(F)c(-c4cc(O)cc5ccc(F)c(Cl)c45)ccc23)C1 (single isomer, unassigned) [Example 82]",5 nM,2 nM,24 nM
"CCc1c(F)ccc2cc(O)cc(-c3ccc4c(N5CCC[C@]6(COC(=O)O6)C5)nc(OC[C@@]56CCCN5C[C@H](F)C6)nc4c3F)c12 (single isomer, unassigned) [Example 86]",6 nM,4 nM,52 nM
"CCc1c(F)ccc2cc(O)cc(-c3ccc4c(N5CCC[C@]6(CNC(=O)O6)C5)nc(OC[C@@]56CCCN5C[C@H](F)C6)nc4c3F)c12 (single isomer, unassigned) [Example 88]",15 nM,6 nM,13 nM
"CCc1c(F)ccc2cc(O)cc(-c3ccc4c(N5CCC[C@@]6(CNC(=O)O6)C5)nc(OC[C@@]56CCCN5C[C@H](F)C6)nc4c3F)c12 (single isomer, unassigned) [Example 89]",7 nM,5 nM,14 nM
"CCc1c(F)ccc2cc(O)cc(-c3c(F)cc4c(N5CCC[C@]6(CCO6)C5)nc(OC[C@@]56CCCN5C[C@H](F)C6)nc4c3F)c12 (single isomer, unassigned) [Example 90]",5 nM,3 nM,7 nM
"CCc1c(F)ccc2cc(O)cc(-c3c(F)cc4c(N5CCC[C@]6(C5)C[C@@H](O)C6)nc(OC[C@@]56CCCN5C[C@H](F)C6)nc4c3F)c12 (single isomer, unassigned) [Example 91]",5 nM,3 nM,16 nM
"CCc1c(F)ccc2cc(O)cc(-c3c(F)cc4c(N5CCC[C@]6(COC(=O)O6)C5)nc(OC[C@@]56CCCN5C[C@H](F)C6)nc4c3F)c12 (single isomer, unassigned) [Example 93]",7 nM,5 nM,28 nM
"CCc1c(F)ccc2cc(O)cc(-c3c(F)cc4c(N5CCC[C@]6(CCS(=O)(=O)C6)C5)nc(OC[C@@]56CCCN5C[C@H](F)C6)nc4c3F)c12 (single isomer, unassigned) [Example 94]",4 nM,4 nM,26 nM
"CCc1c(F)ccc2cc(N)cc(-c3c(F)cc4c(N5CCC[C@]6(CNC(=O)O6)C5)nc(OC[C@@]56CCCN5C[C@H](F)C6)nc4c3F)c12 (single isomer, unassigned) [Example 97]",4 nM,2 nM,29 nM
"C[C@@H]1C[C@@H]1c1c(Cl)cc2[nH]ncc2c1-c1c(F)cc2c(N3CCOC[C@@](C)(O)C3)nc(OC[C@@]34CCCN3C[C@H](F)C4)nc2c1F (single isomer, unassigned) [Example 98]",7 nM,3 nM,28 nM
"C[C@@H]1CC1c1c(Cl)cc2[nH]ncc2c1-c1c(F)cc2c(N3CCOCC(O)(CF)C3)nc(OC[C@@]34CCCN3C[C@H](F)C4)nc2c1F (single isomer, unassigned) [Example 99]",9 nM,5 nM,93 nM
"Cc1cc2[nH]ncc2c(-c2c(F)cc3c(N4CCC[C@](O)(CF)C4)nc(OC[C@@]45CCCN4C[C@H](F)C5)nc3c2F)c1C1CC1 (single isomer, unassigned) [Example 100]",4 nM,3 nM,90 nM
"C/C=C\c1c(Cl)cc2[nH]ncc2c1-c1c(F)cc2c(N3CCC[C@](O)(CF)C3)nc(OC[C@@]34CCCN3C[C@H](F)C4)nc2c1F (single isomer, unassigned) [Example 101]",5 nM,3 nM,39 nM
"C/C=C\c1c(C)cc2[nH]ncc2c1-c1c(F)cc2c(N3CCC[C@](O)(CF)C3)nc(OC[C@@]34CCCN3C[C@H](F)C4)nc2c1F (single isomer, unassigned) [Example 102]",4 nM,3 nM,36 nM
"C/C=C\c1c(C)cc2[nH]ncc2c1-c1c(F)cc2c(N3CCOC[C@@](C)(O)C3)nc(OC[C@@]34CCCN3C[C@H](F)C4)nc2c1F (single isomer, unassigned) [Example 104]",2 nM,1 nM,30 nM
"Cc1cc2[nH]ncc2c(-c2ccc3c(N4CCC[C@@](C)(O)C4)nc(OC[C@@]45CCCN4C[C@H](F)C5)nc3c2F)c1[C@H]1C[C@H]1C (single isomer, unassigned) [Example 107]",4 nM,3 nM,166 nM
"C/C=C\c1c(Cl)cc2[nH]ncc2c1-c1ccc2c(N3CCC[C@](O)(CF)C3)nc(OC[C@@]34CCCN3C[C@H](F)C4)nc2c1F (single isomer, unassigned) [Example 109]",4 nM,4 nM,100 nM
"C/C=C\c1c(Cl)cc2[nH]ncc2c1-c1c(F)cc2c(N3CCC[C@](O)(C(F)F)C3)nc(OC[C@@]34CCCN3C[C@H](F)C4)nc2c1F (single isomer, unassigned) [Example 112]",5 nM,5 nM,125 nM
"C/C=C\c1c(Cl)cc2[nH]ncc2c1-c1c(F)cc2c(N3CCC[C@]4(CCO4)C3)nc(OC[C@@]34CCCN3C[C@H](F)C4)nc2c1F (single isomer, unassigned) [Example 113]",3 nM,3 nM,41 nM
"C/C=C\c1c(C)cc2[nH]ncc2c1-c1c(F)cc2c(N3CCC[C@]4(CCO4)C3)nc(OC[C@@]34CCCN3C[C@H](F)C4)nc2c1F (single isomer, unassigned) [Example 114]",6 nM,5 nM,87 nM
"C/C=C\c1c(Cl)cc2[nH]ncc2c1-c1c(F)cc2c(N3CCC[C@@](C)(O)C3)nc(OC[C@@]34CCCN3C[C@H](F)C4)nc2c1F (single isomer, unassigned) [Example 120]",4 nM,3 nM,35 nM
"CCc1c(F)ccc2cc(O)cc(-c3ccc4c(N5CCC[C@@](C)(O)C5)nc(OC[C@@]56CCCN5C[C@H](F)C6)nc4c3F)c12 [Example 1, (R)-1-(7-(8-Ethyl-7-fluoro-3-hydroxynaphthalen-1-yl)-8-fluoro-2-(((2R,7aS)-2-fluorotetrahydro-1H-pyrrolizin-7a(5H)-yl)methoxy)quinazolin-4-yl)-3-methylpiperidin-3-ol]",2 nM,3 nM,48 nM
